Experimental data from patent publication US20080051372A1, “METHODS UTILIZING CELL-SIGNALING LYSOPHOSPHOLIPIDS” (THE SCRIPPS RESEARCH INSTITUTE, priority 2006, published 2008).

What was measured:
[1] = test system: cortical neuronal progenitors (E14) plated onto cortical astrocyte monolayers; test: neuron-astrocyte co-culture on astrocytes previously treated with LPA; assay type: cell-based, mouse
Protocol: All animal protocols were approved by the Animal Research Committee of The Scripps Research Institute, conformed to National Institutes of Health guidelines and public law. Astrocyte primary cultures were prepared from cerebral cortex of newborn mice as previously described (de Sampaio e Spohr et al., Neuron-glia interaction effects on GFAP gene: a novel role for transforming growth factor-31, 2002, Eur J Neurosci, 16:2059-2069, incorporated herein by reference and Sousa et al., Glial fibrillary acidic protein gene promoter is differently modulated by transforming growth factor-beta 1 in astrocytes from distinct brain regions, 2004, Eur Neurosci, 19(7):1721-1730, incorporated by reference in its entirety). Astrocytes cultures were generated from C57B1/6 and Swiss mice. Briefly, after the mice were anesthetized, they were decapitated, brain structures were removed and the meninges were carefully stripped off. Dissociated cells were plated onto glass coverslips in 24 wells-plate (Corning Incorporated, NY), previously coated with polyornithine (1.5 μg/ml, mol. wt. 41,000, Sigma Chemical Co., St. Louis, Mo.), in DMEM/F12 medium supplemented with 10% fetal calf serum (Invitrogen, Carlsbad, Calif.). The cultures were incubated at 37° C. in a humidified 5% CO2, 95% air chamber for 10 days until reaching confluence. For experiments with LPA null mice, embryos from LPA, LPA2 double-heterozygous females (on a mixed background C57B1/6×129SW) were genotyped by PCR using DNA isolated from a small part of the tail (Contos et al., Requirement of the LPA, lysophosphatidic acid receptor gene in normal suckling behavior, 2000, PNAS, 97(24):13384-13389, incorporated herein by reference; Contos et al., Characterization of LPA(2) (Edg4) and LPA(I)/LPA(2) (edg2/Edg4) lysophosphatidic acid receptor knockout mice: signaling deficits without obvious pehotypic abnormality attributable to LPA(2), 2002, Mol Cell Bio, 22(19):6921-6929, incorporated herein by reference).
After reaching confluence, glial mono layers were washed three times with serum-free DMEM/F12 medium and incubated as previously described for an additional day in serum-free medium. Cultures were then treated with 1 μM LPA (Oleoyl-LPA, Avanti Polar Lipids) in DMEM/F12 supplemented with 0.1% fatty-acid free bovine serum albumin (FAFBSA, Sigma) for 4 hours. Control astrocyte carpets were treated with DMEM/F12 supplemented with 0.1% FAFBSA. Medium was then replaced by DMEM/F12 without serum and used as substrate in neuron-astrocyte assays.
For neuronal cultures, timed-pregnant BALB/c females (Simonsen Laboratories), C57B1/6 females or Swiss females were killed by halothane followed by cervical dislocation, and embryos were removed at the day 14 (E14). Cortical progenitors were prepared from cerebral hemispheres from E14 embryos as previously described (Martinez and Gomes, 2002, Neuritogenesis induced by thyroid hormone-treated astrocytes is mediated by epidermal growth factor/mitogen-activated protein kinase-phosphatidylinositol 3-kinase pathways and involves modulation of extracellular matrix proteins, J Biol Chem, 277:49311-49318, incorporated herein by reference; Sousa et al., 2004, Glial fibrillary acidic protein gene promoter is differently modulated by transforming growth factor-beta 1 in astrocytes from distinct brain regions, 2004, Eur J Neurosci 19(7):1721-17302004, incorporated herein by reference). Briefly, cells were freshly dissociated from cerebral hemispheres and 1×10^5 cells plated onto glial monolayer carpets non-treated or previously treated with LPA or LPA-conditioned medium for 4 hours as previously described. In the case of LPA CM assays, the medium was not replaced after 4 hours of treatment; instead it was left until the end of co-culture. Co-cultures were kept for 24 hours at 37° C. in a humidified 5% CO2, 95% air atmosphere. […]

[2] = test system: TR mouse cerebral cortical immortalized neuroblast cells; test: LPA-like activity bioassay, cell rounding / neurite retraction; assay type: cell-based; details: concentrations from 1 to 100 nM of LPA; 15-30 minutes
Protocol: LPA-like activity was assayed by measuring morphological changes in TR mouse cerebral cortical immortalized neuroblast cells as previously described (Chun and Jaenisch, Clonal cell lines produced by infection of neocortical neuroblast using multiple oncogenes transduced by retroviruses, 1996, Mol Cell Neurosci, 18:379-383; Hecht et al., Ventricular zone gene-1 (vzg-I) encodes a lysophoshpatidic acid receptor expressed in neurogeneic regions of the developing cerebral cortex, 1996, J Cell Bio, 135:1071-1083, incorporated herein by reference; Ishii et al., Functional comparisons of the lysophosphatidic acid receptors, LPA(A1)IVZG-I/EDG-2, LP(A2)/EDG-4, and LP(A3)/EDG-7 in neuronal cell lines using a retrovirus expression system, 2000, Molecular Pharmacology, 58(5):895-902, incorporated herein by references; Fukushima et al., Lysophosphatidic acid influences the morphology and motility of young, postmitotic cortical neurons, 2002, Mol Cell Neurosci, 20(2):271-282, incorporated herein by reference). […] After this period, cells were fixed with 4% PFA and round cells were counted under phase-contrast optics (A-F). […]
After this period, cells were fixed with 4% PFA and round cells were counted under phase-contrast optics (A-F) The cell number was expressed by percentage of protophasmic, non-round population. […]

[3] = test system: astrocyte primary cultures from wild type and LPA double-null newborn mice; test: astrocyte morphology and GFAP immunostaining after LPA; assay type: cell-based, mouse; details: 1 μM LPA for 24 hours; wild type and LPA1 LPA2 null astrocytes
From the text: The Generation of Receptor-Null Mice Allows not Only Direct Examination of the systemic roles of LPA receptors in vivo (Contos et al., Requirement of the LPA1 lysophosphatidic acid receptor gene in normal suckling behavior, 2000, PNAS, 97(24):13384-13389, incorporated herein by reference; Contos et al., Characterization of LPA(2) (Edg4) and LPA(I)/LPA(2) (edg2/Edg4) lysophosphatidic acid receptor knockout mice: signaling deficits without obvious pehotypic abnormality attributable to LPA(2), 2002, Mol Cell Bio, 22(19):6921-6929, incorporated herein by reference) but it also contributes for further elucidation of LPA receptor-specific signaling pathways in receptor-null primary cells (Ishii et al., Functional comparisons of the lysophosphatidic acid receptors, LP(A1))/VZG-1/EDG-4, and LP(A3)/EDG-7 in neuronal cell lines using a retrovirus expression system, 2000, Mol. Pharmacology, 58:895-902, incorporated herein by reference). To determine whether LPA effects in the co-culture system are mediated by specific LPA receptors, astrocyte mono layers derived from mice with null mutations in both LPA1 and LPA2 receptors were prepared. Astrocyte primary cultures were prepared from cerebral cortex of wild type and LPA double-null newborn mice. Astrocyte mono layers were kept in DMEM/F12 medium supplemented with 10% fetal calf serum for days until reaching confluence. […]

[4] = test system: cortical neuronal progenitors plated onto astrocyte monolayers derived from LPA1 LPA2 null mice; test: co-culture on LPA1 LPA2 null astrocytes previously treated with LPA; assay type: cell-based, mouse; details: P>0.05
Protocol: In order to address the involvement of LPA receptor in LPA-astrocyte effects on neuronal morphogenesis, cortical neuronal progenitors derived from E14 wild type mice were plated onto cortical astrocyte mono layers derived from LPA, LPA2 null mice previously treated with LPA. After 24 hours, cells were immunostained for the neuronal marker, β-tubulin III, and the number of neurons and arborization of their neurites were measured. […] The scale bar in FIG. 8 corresponds to 50 μm.

[5] = test system: cortical neuronal progenitors on retroviral infected LPA1/LPA2 double-null astrocytes; test: retroviral rescue of LPA1/LPA2 double-null astrocytes, co-culture; assay type: cell-based, mouse
Protocol: Retroviral vectors expressing LPA1 or LPA2 were reported previously (Ishii et al., Functional comparisons of the lysophosphatidic acid receptors, LP(A1)/VZG-1/EDG-4, and LP(A3)/EDG-7 in neuronal cell lines using a retrovirus expression system, 2000, Mol. Pharmacology, 58:895-902, incorporated herein by reference) as depicted in FIG. 8A. LPA1/LPA2 double-null astrocytes were infected with the epitope-tagged LPA1, LPA2, or empty-vector control retrovirus in 4 μg/ml of polybrene to the media of subconfluent proliferating astrocytes plated in a monolayer. Plates were centrifuged (700 g) at 28° C. for 2 hours, and the astrocytes cultured for 48 hours in fresh media. Astrocytes were serum starved for another 24 hours and then used in the assays. Receptor expression was confirmed by epitope-tagged immunolabeling of GFP-positive cells.
The retroviral infected LPA1/LPA2 double-null astrocytes were treated with LPA. The astrocytes monolayers were co-cultured with cortical neuronal progenitors derived from E14 wild type mice. After 24 hours, cells were immunostained for the neuronal marker, β-tubulin III, and the number of neurons and arborization of their neurites were measured.

[6] = test system: cultured embryonic hippocampal neurons; details: cited from earlier work
[7] = neurons plated onto LPA-treated astrocytes, P<0.05
[8] = double-null astrocytes infected with either the LPA1 or LPA2 retrovirus, treated with LPA

Substance	number of caspase positive cells (activated caspase-3) ([1]; after 24 hours of coculture, control vs treated cultures, P>0.05)	increase in the number of β-tubulin III positive cells ([1]; astrocytes treated with 1 μM LPA for 4 hours, 24 hours co-culture, vs control astrocytes, P<0.05)	decrease in the number of aneuritic neurons [1, 7]	neurons extending three or more neurites [1, 7]	number of neurons with two neurites [1, 7]	total number of cells ([1]; progenitor cells plated onto LPA-astrocyte monolayers, P>0.05)	rounding of TR cells [2]	astrocyte morphology [3]	neuronal population ([4]; LPA1 LPA2 null astrocytes treated with LPA, 24 hours)	neuronal death ([4]; treated vs non-treated LPA1 LPA2 null astrocytes)	prevalence of greater than two neurites/neurons [5, 8]	β-tubulin III cells [5, 8]	neuronal differentiation ([5]; double-null astrocytes infected with empty vector control virus (SOO3), primed with LPA)	neurite outgrowth [6]
Oleoyl-LPA	no difference	41%	64%	dramatic increase	significant increase	not altered	induced rounding	did not affect astrocyte morphology	did not affect neuronal population	did not differ	increased prevalence	increased	did not result in an increase	–
cyclic phosphatidic acid [cPA]	–	–	–	–	–	–	–	–	–	–	–	–	–	promoted neurite outgrowth
